Read-outs that look alike come from different tables or passages of the source.
Legend:
[1] = biological target: GSK3α (GST-full length GSK3α) (Homo sapiens (Human), UniProt P49840); assay: GSK3α TR-FRET kinase assay; type: biochemical
How it was run: (§1)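 IC50 came from the normalized 665/615 nm TR-FRET ratio plotted against log compound concentration. The Tb-labelled pSer641 antibody and streptavidin-d2 detected phosphorylation of biotinylated S645-primed glycogen synthase peptide (200 nM) by 1 nM full-length GST-kinase. ATP was 4 μM for α, 2 μM for β, or 1 mM.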

[2] = biological target: GSK3b (GST-full length GSK3b) (Homo sapiens (Human), UniProt P49841); assay: GSK3b TR-FRET kinase assay; type: biochemical
How it was run: as §1

[3] = 1 nM GSK3α, 4 μM ATP, 30 minute preincubation, geometric mean, read-out: GSK3-A TR-FRET BIOCHEMICAL (TR-FRET), GMean, IC50
[4] = 1 nM GSK3b, 2 μM ATP, 30 minute preincubation, geometric mean, read-out: GSK3-B TR-FRET BIOCHEMICAL (TR-FRET), GMean, IC50
[5] = 1 nM GSK3α, 4 μM ATP, 30 minute preincubation, Table 16, read-out: GSK3-A TR-FRET BIOCHEMICAL (TR-FRET)
[6] = 1 nM GSK3b, 2 μM ATP, 30 minute preincubation, Table 16, read-out: GSK3-B TR-FRET BIOCHEMICAL (TR-FRET)
[7] = 1 nM GSK3α, 4 μM ATP, 30 minute preincubation, read-out: GSK3-A TR-FRET BIOCHEMICAL (TR-FRET), IC50
[8] = 1 nM GSK3b, 2 μM ATP, 30 minute preincubation, read-out: GSK3-B TR-FRET BIOCHEMICAL (TR-FRET), IC50
[9] = 1 nM GSK3α, 4 μM ATP, 30 minute preincubation, Table 16, read-out: GSK3-A TR-FRET BIOCHEMICAL (TR-FRET), IC50
[10] = 1 nM GSK3b, 2 μM ATP, 30 minute preincubation, Table 16, read-out: GSK3-B TR-FRET BIOCHEMICAL (TR-FRET), IC50
[11] = read-out: GSK3-A (TR-FRET 1 mM ATP), GMean, IC50, 1 mM ATP, geometric mean
[12] = read-out: GSK3-B (TR-FRET 1 mM ATP), GMean, IC50, 1 mM ATP, geometric mean

Sequence of GSK3α (GST-full length GSK3α) (P49840 whole entry): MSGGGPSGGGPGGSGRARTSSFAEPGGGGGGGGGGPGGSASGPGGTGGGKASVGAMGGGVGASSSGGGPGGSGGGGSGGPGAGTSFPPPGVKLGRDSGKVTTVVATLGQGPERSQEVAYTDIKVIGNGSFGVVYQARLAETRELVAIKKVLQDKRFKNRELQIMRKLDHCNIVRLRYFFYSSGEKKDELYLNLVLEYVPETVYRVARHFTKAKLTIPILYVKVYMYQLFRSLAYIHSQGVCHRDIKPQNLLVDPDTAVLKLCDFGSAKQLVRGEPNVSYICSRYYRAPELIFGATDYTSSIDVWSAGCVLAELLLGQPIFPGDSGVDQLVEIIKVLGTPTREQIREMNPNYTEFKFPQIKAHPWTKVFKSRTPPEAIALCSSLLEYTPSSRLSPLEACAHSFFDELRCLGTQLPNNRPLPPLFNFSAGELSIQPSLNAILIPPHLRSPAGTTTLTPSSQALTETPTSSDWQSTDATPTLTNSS
Sequence of GSK3b (GST-full length GSK3b) (P49841 whole entry): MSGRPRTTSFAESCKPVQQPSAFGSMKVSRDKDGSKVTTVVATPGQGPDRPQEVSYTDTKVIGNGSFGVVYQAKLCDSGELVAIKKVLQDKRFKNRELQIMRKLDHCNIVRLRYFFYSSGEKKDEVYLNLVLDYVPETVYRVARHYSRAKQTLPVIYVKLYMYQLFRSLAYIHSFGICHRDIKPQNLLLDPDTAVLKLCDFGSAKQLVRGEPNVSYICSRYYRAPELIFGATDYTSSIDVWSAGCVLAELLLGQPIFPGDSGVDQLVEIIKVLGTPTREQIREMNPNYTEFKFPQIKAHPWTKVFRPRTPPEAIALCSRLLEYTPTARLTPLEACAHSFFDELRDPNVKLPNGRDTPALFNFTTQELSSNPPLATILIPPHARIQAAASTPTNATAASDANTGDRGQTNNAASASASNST

Compound: CC[C@@]1(c2ccccc2)C2=C(CC3(CCCC3)CC2=O)Nc2n[nH]cc21 [Compound 789562]
- IC50 [1, 3]: ≤ 0.1 µM
- IC50 [2, 4]: 0.1 to 1 µM

Compound: CCC1(c2cccc(C(F)(F)F)c2)C2=C(Nc3n[nH]cc31)C(C)NC2=O (stereo not shown) [Compound 917295]
- IC50 [1, 5]: 0.1 to 1 µM
- IC50 [2, 6]: 1 to 5 µM

Compound: CC1(C)CC(=O)C2=C(C1)Nc1n[nH]cc1C21CCN(S(=O)(=O)c2ccc(C(F)(F)F)cn2)CC1 [Compound 947902]
- IC50 [1, 5]: ≤ 0.1 µM
- IC50 [2, 6]: ≤ 0.1 µM

Compound: C[C@@H]1C[C@H](C)C[C@]2(C1)C1=C(CC(C)(C)CC1=O)Nc1n[nH]cc12 [Compound 884114]
- IC50 [1, 5]: 0.1 to 1 µM
- IC50 [2, 6]: 0.1 to 1 µM

Compound: CCC1(c2cccc(N3CCOCC3)c2)C2=C(CC(C)(C)CC2=O)Nc2n[nH]c(C)c21 (stereo not shown) [Compound 874312]
- IC50 [1, 3]: ≤ 0.1 µM
- IC50 [2, 4]: ≤ 0.1 µM

Compound: CCC1(c2cccc(-c3cnn4c3CCCC4)c2)C2=C(CC(C)(C)NC2=O)Nc2n[nH]cc21 (stereo not shown) [Compound 947415]
- IC50 [1, 3]: 1 to 5 µM
- IC50 [2, 4]: > 5 µM

Compound: CC1(C)CC(=O)C2=C(C1)Nc1n[nH]cc1C21CCC2(CC2)CC1 [Compound 893312]
- IC50 [1, 7]: ≤ 0.1 µM
- IC50 [2, 8]: ≤ 0.1 µM

Compound: CC1(C)CC(=O)C2=C(C1)Nc1n[nH]cc1[C@]21CCCc2ccccc21 [Compound 930566]
- IC50 [1, 9]: ≤ 0.1 µM
- IC50 [2, 10]: 0.1 to 1 µM

Compound: CC[C@]1(c2cccc(C(F)(F)F)c2)C2=C(CCN(c3cnn(C)c3C)C2=O)Nc2n[nH]cc21 [Compound 952257]
- IC50 [1, 9]: ≤ 0.1 µM
- IC50 [2, 10]: 0.1 to 1 µM

Compound: CCC1(c2cccc(-c3ccnc(C)c3)c2)C2=C(CC(C)(COC)NC2=O)Nc2n[nH]cc21 (stereo not shown) [Compound 948493]
- IC50 [1, 3]: > 5 µM
- IC50 [2, 4]: > 5 µM

Compound: CC[C@@]1(c2cccc(C(F)F)c2)C2=C(CC(C)(C)NC2=O)Nc2n[nH]cc21 [Compound 949007]
- IC50 [1, 3]: 1 to 5 µM
- IC50 [2, 4]: > 5 µM

Compound: CCC1(c2cccc(-c3cn(C)nc3C)c2)C2=C(CC(C)(C)CC2=O)Nc2n[nH]c(C)c21 (stereo not shown) [Compound 884003]
- IC50 [1, 9]: ≤ 0.1 µM
- IC50 [2, 10]: ≤ 0.1 µM

Compound: Cc1c(S(=O)(=O)N2CCC3(CC2)C2=C(CC(C)(C)CC2=O)Nc2n[nH]cc23)cnn1C [Compound 947460]
- IC50 [1, 5]: ≤ 0.1 µM
- IC50 [2, 6]: ≤ 0.1 µM

Compound: CC1(C)CC(=O)C2=C(Nc3n[nH]cc3C23CCOCC3)[C@H]1F [Compound 883833]
- IC50 [1, 5]: 0.1 to 1 µM
- IC50 [2, 6]: 1 to 5 µM

Compound: CC1(C)CC(=O)C2=C(C1)Nc1n[nH]cc1[C@]21CC[C@H](c2ccncc2)CC1 [Compound 949321]
- IC50 [1, 5]: ≤ 0.1 µM
- IC50 [2, 6]: ≤ 0.1 µM

Compound: Cc1cc(-c2cccc3c2CCC[C@@]32C3=C(CC(C)(C)CC3=O)Nc3n[nH]cc32)ccn1 [Compound 945550]
- IC50 [1, 5]: 0.1 to 1 µM
- IC50 [2, 6]: > 5 µM

Compound: CC[C@]1(c2cccc(C(F)(F)F)c2)C2=C(Nc3n[nH]cc31)[C@@H](C)CN(C)C2=O [Compound 883981]
- IC50 [1, 7]: > 5 µM
- IC50 [2, 8]: > 5 µM

Compound: C[C@@H]1CC(=O)C2=C(C1)Nc1n[nH]cc1C21CCOCC1 [Compound 912079]
- IC50 [1, 9]: 0.1 to 1 µM
- IC50 [2, 10]: 0.1 to 1 µM

Compound: CC[C@]1(c2cccc(-c3ccncc3C)c2)C2=C(C[C@@]3(CCCOC3)NC2=O)Nc2n[nH]cc21 [Compound 947910]
- IC50 [1, 3]: ≤ 0.1 µM
- IC50 [2, 4]: ≤ 0.1 µM

Compound: CC[C@]1(c2cccc(Cc3ncccc3C(F)(F)F)c2)C2=C(CC(C)(C)CC2=O)Nc2n[nH]cc21 [Compound 947665]
- IC50 [1, 5]: 1 to 5 µM
- IC50 [2, 6]: > 5 µM

Compound: CC[C@]1(c2ccccc2)C2=C(C[C@]3(CCCOC3)CC2=O)Nc2n[nH]cc21 [Compound 816877]
- IC50 [1, 3]: > 5 µM
- IC50 [2, 4]: > 5 µM

Compound: CC[C@]1(c2cccc(-c3c(C)cnc4c(C)cccc34)c2)C2=C(CC(C)(C)NC2=O)Nc2n[nH]cc21 [Compound 952760]
- IC50 [1, 9]: > 5 µM
- IC50 [2, 10]: > 5 µM

Compound: CC[C@]1(c2cccc(-c3cnn(C4CCCCC4)c3)c2)C2=C(CC(C)(C)NC2=O)Nc2n[nH]cc21 [Compound 951707]
- IC50 [1, 9]: 0.1 to 1 µM
- IC50 [2, 10]: 1 to 5 µM

Compound: CCC1(c2cccc(Br)c2)C2=C(CC(C)(C)CC2=O)Nc2n[nH]cc21 (stereo not shown) [Compound 790733]
- IC50 [1, 3]: ≤ 0.1 µM
- IC50 [1, 11]: 0.1 to 1 µM
- IC50 [2, 4]: ≤ 0.1 µM
- IC50 [2, 12]: 1 to 5 µM

Compound: CCC1(c2cccc(-c3ccnc4c(Cl)cccc34)c2)C2=C(CC(C)(C)NC2=O)Nc2n[nH]cc21 (stereo not shown) [Compound 948659]
- IC50 [1, 3]: > 5 µM
- IC50 [2, 4]: > 5 µM

Compound: CC[C@@]1(c2cccc(N3CCCC3)c2)C2=C(CC(C)(C)CC2=O)Nc2n[nH]cc21 [Compound 810509]
- IC50 [1, 3]: > 5 µM
- IC50 [2, 4]: > 5 µM

Compound: CC1(C)CC(=O)C2=C(C1)Nc1n[nH]cc1C21CCCc2ccccc21 (stereo not shown) [Compound 913219]
- IC50 [1, 9]: ≤ 0.1 µM
- IC50 [2, 10]: 0.1 to 1 µM

Compound: CCC1(c2cccc(NS(C)(=O)=O)c2)C2=C(CC(C)(C)CC2=O)Nc2n[nH]cc21 (stereo not shown) [Compound 927341]
- IC50 [1, 9]: 1 to 5 µM
- IC50 [2, 10]: 1 to 5 µM

Compound: CC(=O)N1CC2(C1)C[C@]1(CO2)C2=C(CC(C)(C)CC2=O)Nc2n[nH]cc21 [Compound 926861]
- IC50 [1, 7]: ≤ 0.1 µM
- IC50 [1, 11]: ≤ 0.1 µM
- IC50 [2, 8]: ≤ 0.1 µM
- IC50 [2, 12]: ≤ 0.1 µM

Compound: CC1(C)CC(=O)C2=C(C1)Nc1n[nH]cc1C21CSC1 [Compound 889567]
- IC50 [1, 5]: ≤ 0.1 µM
- IC50 [2, 6]: 0.1 to 1 µM

Compound: CCC1(c2cccc(N(C)c3ccnc(OC)c3)c2)C2=C(CC(C)(C)CC2=O)Nc2n[nH]cc21 (stereo not shown) [Compound 932642]
- IC50 [1, 9]: ≤ 0.1 µM
- IC50 [2, 10]: 0.1 to 1 µM

Compound: CC1(C)CC(=O)C2=C(C1)Nc1n[nH]cc1C21COC2(CN(C(=O)C3CCC4(CC3)COC4)C2)C1 (stereo not shown) [Compound 944075]
- IC50 [1, 7]: ≤ 0.1 µM
- IC50 [2, 8]: 0.1 to 1 µM

Compound: CCC1(c2cccc(Cl)c2)C2=C(CC(C)(C)CC2=O)Nc2n[nH]c(C)c21 (stereo not shown) [Compound 790611]
- IC50 [1, 3]: > 5 µM
- IC50 [2, 4]: > 5 µM

Compound: CC1(C)CC(=O)C2=C(C1)Nc1n[nH]cc1C21CCC2(CCC(=O)N2)CC1 (stereo not shown) [Compound 913056]
- IC50 [1, 7]: 0.1 to 1 µM
- IC50 [2, 8]: 1 to 5 µM

Compound: CC[C@@]1(c2cccc(C(F)(F)F)c2)C2=C(C[C@H](C)N(c3cnc(OC)nc3)C2=O)Nc2n[nH]cc21 [Compound 949354]
- IC50 [1, 9]: 0.1 to 1 µM
- IC50 [2, 10]: 1 to 5 µM

Compound: CCn1ccc(S(=O)(=O)N2CCC3(CC2)C2=C(CC(C)(C)NC2=O)Nc2n[nH]cc23)n1 [Compound 947836]
- IC50 [1, 3]: ≤ 0.1 µM
- IC50 [1, 7]: ≤ 0.1 µM
- IC50 [2, 4]: 0.1 to 1 µM
- IC50 [2, 8]: 0.1 to 1 µM

Compound: CCC1(c2cccc(-c3ccnc(C)c3)c2)C2=C(CC(C)(C)NC2=O)Nc2n[nH]cc21 (stereo not shown) [Compound 927325]
- IC50 [1, 7]: ≤ 0.1 µM
- IC50 [1, 11]: 0.1 to 1 µM
- IC50 [2, 8]: 0.1 to 1 µM
- IC50 [2, 12]: > 5 µM

Compound: CCC1(c2ccccc2)C2=C(CCC(C)(C)C2=O)Nc2n[nH]cc21 (stereo not shown) [Compound 835310]
- IC50 [1, 3]: 0.1 to 1 µM
- IC50 [2, 4]: 1 to 5 µM

Compound: CCC1(c2cccc(-c3ccnc(OC)c3)c2)C2=C(CC(C)(C)CC2=O)Nc2n[nH]cc21 (stereo not shown) [Compound 911989]
- IC50 [1, 9]: 1 to 5 µM
- IC50 [2, 10]: > 5 µM

Compound: CCC1(c2cccc(N(C)c3cnn(C)c3)c2)C2=C(CC(C)(C)CC2=O)Nc2n[nH]cc21 (stereo not shown) [Compound 885382]
- IC50 [1, 9]: 0.1 to 1 µM
- IC50 [2, 10]: 1 to 5 µM

Compound: Cc1cc(S(=O)(=O)N2CCC3(CC2)C2=C(CC(C)(C)CC2=O)Nc2n[nH]cc23)cc(C)n1 [Compound 947616]
- IC50 [1, 5]: ≤ 0.1 µM
- IC50 ([1]; GSK3-A (TR-FRET 1 mM ATP), GMean, IC50, 1 mM ATP, geometric mean): 0.1 to 1 µM
- IC50 [2, 6]: ≤ 0.1 µM
- IC50 ([2]; GSK3-B (TR-FRET 1 mM ATP), GMean, IC50, 1 mM ATP, geometric mean): 1 to 5 µM

Compound: Cc1cccc(S(=O)(=O)N2CCC3(CC2)C2=C(CC(C)(C)CC2=O)Nc2n[nH]cc23)c1 [Compound 947261]
- IC50 [1, 5]: ≤ 0.1 µM
- IC50 [2, 6]: ≤ 0.1 µM

From patent US20250313563A1, “GLYCOGEN SYNTHASE KINASE 3 INHIBITORS AND USES THEREOF” (The Broad Institute, Inc., priority 2022, published 2025)
